These results are taken from patent publication US20250027863A1, “METHOD OF CHARACTERIZATION OF RELEASE OF POORLY SOLUBLE MATERIALS AND UPTAKE IN COMPLEX LIQUIDS” (Zennova LLC, priority 2021, published 2025).

This series is described as follows: MCRR in vitro release test of ibuprofen solution (flow medium) to external medium. The class given is physicochemical.

Consider `CC(C)Cc1ccc(C(C)C(=O)O)cc1` (centres unmarked) [ibuprofen], for which the “slope of ln (1-fraction released) vs. the exposure time” value (exposure time in seconds, 15-300 seconds) is −0.0102. Moreover, the percent released (ibuprofen solution in 25 mM phosphate buffer as flow medium, exposure times up to 300 seconds (test time 291.3 minutes), 20° C, triplicate) is listed as roughly 100%.
